Measurements taken from BindingDB's records for doi:10.7270/Q2X34VZF (Burnham Center For Chemical Genomics, 2011).

Biological target: Phospholipase A2 (Homo sapiens, UniProt P04054)
Experiment: PLA2 enzyme inhibitors, dose response, counter-screen for ATG4B inhibitor project, biochemical, set 2 (AID 588586)

Sequence of Phospholipase A2 (P04054 whole entry): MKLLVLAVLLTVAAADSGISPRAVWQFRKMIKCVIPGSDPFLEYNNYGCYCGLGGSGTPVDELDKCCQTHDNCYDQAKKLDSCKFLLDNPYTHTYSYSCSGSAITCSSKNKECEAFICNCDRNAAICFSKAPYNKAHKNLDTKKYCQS

| IC50 [µM] | Structure (SMILES) |
| --- | --- |
| 10.5 | CC1=CC(/C=N/n2c(COc3ccccc3)nc3ccccc3c2=O)C(=O)C([N+](=O)[O-])=C1 (stereo not drawn) [3-[[(E)-(3-methyl-5-nitro-6-oxocyclohexa-2,4-dien-1-ylidene)methyl]amino]-2-(phenoxymethyl)quinazolin-4-one] |
| 22.3 | Cc1ccc(NC2=NC(=O)C(=Cc3c(C)[nH]c4ccccc34)S2)cc1 [5-[(2-methyl-1H-indol-3-yl)methylene]-2-[(4-methylphenyl)imino]-1,3-thiazolidin-4-one] |
| 2.47 | Oc1ccc2ccccc2c1CN=Nc1nnc(-c2ncc[nH]2)c2ccccc12 [SMR000151639] |
